Laboratory results published in patent US20160122320A1, “USEFUL COMBINATIONS OF MONOBACTAM ANTIBIOTICS WITH BETA-LACTAMASE INHIBITORS” (Basilea Pharmaceutica AG, priority 2005, published 2016).

Columns and labels:
Test in all cases: MIC, NCCLS broth microdilution
Format in all cases: cell-based
[1] = tested on: Pseudomonas aeruginosa MK1184
Acinetobacter sp. J2 = details: Acinetobacter baumannii J2
[2] = tested on: Pseudomonas aeruginosa 1973E
Method in brief: (§1)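 Broth microdilution following NCCLS M7-A5, with final DMSO ≤1%. Plates were incubated overnight at 30° C. or 37° C. and growth was read by eye; MIC is the lowest concentration giving complete inhibition of visible growth. In combination tests the formula I compound was serially diluted while partner compounds were held at 4 μg/mL each.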

[3] = tested on: Acinetobacter baumannii J51
Method in brief: as §1

[4] = tested on: Enterobacter aerogenes Zayakosky; details: Enterobacter aerogenes Zayakosky 5
[5] = tested on: Stenotrophomonas malthophilia 1AC736; details: Stenotrophomonas maltophilia 1AC736
[6] = tested on: Klebsiella pneumoniae CF104
Enterobacter cloacae P99 = tested on: Enterobacter cloacae P99
Serratia marcescens S6 = tested on: Serratia marcescens S6
[7] = with clavulanate (clavulanic acid)

- MIC of antibiotic ([1]; antibiotic alone, no inhibitor): 2 µg/mL
- MIC of antibiotic at fixed inhibitor concentration of 4 mg/L ([1]; with 102 and clavulanate): 2 µg/mL
- MIC of antibiotic at fixed inhibitor concentration of 4 mg/L ([1]; with 102 and sulbactam): 2 µg/mL
- MIC of antibiotic at fixed inhibitor concentration of 4 mg/L ([1]; with 102 only): 2 µg/mL
- MIC of antibiotic at fixed inhibitor concentration of 4 mg/L ([1]; with 324 and clavulanate): 2 µg/mL
- MIC of antibiotic at fixed inhibitor concentration of 4 mg/L ([1]; with 324 and sulbactam): 2 µg/mL
- MIC of antibiotic at fixed inhibitor concentration of 4 mg/L ([1]; with 324 only): 4 µg/mL
- MIC of antibiotic at fixed inhibitor concentration of 4 mg/L ([1]; with 501): 2 µg/mL
- MIC of antibiotic at fixed inhibitor concentration of 4 mg/L ([1]; with BRL427158): 2 µg/mL
- MIC of antibiotic at fixed inhibitor concentration of 4 mg/L [1, 7]: 4 µg/mL
- MIC of antibiotic at fixed inhibitor concentration of 4 mg/L ([1]; with sulbactam): 4 µg/mL
- MIC of antibiotic at fixed inhibitor concentration of 4 mg/L ([1]; with tazobactam): 4 µg/mL
- MIC of antibiotic (Acinetobacter sp. J2; antibiotic alone, no inhibitor): 4 µg/mL
- MIC of antibiotic at fixed inhibitor concentration of 4 mg/L (Acinetobacter sp. J2; with 102 and clavulanate): 4 µg/mL
- MIC of antibiotic at fixed inhibitor concentration of 4 mg/L (Acinetobacter sp. J2; with 102 and sulbactam): 2 µg/mL
- MIC of antibiotic at fixed inhibitor concentration of 4 mg/L (Acinetobacter sp. J2; with 102 only): 4 µg/mL
- MIC of antibiotic at fixed inhibitor concentration of 4 mg/L (Acinetobacter sp. J2; with 324 and clavulanate): 4 µg/mL
- MIC of antibiotic at fixed inhibitor concentration of 4 mg/L (Acinetobacter sp. J2; with 324 and sulbactam): 2 µg/mL
- MIC of antibiotic at fixed inhibitor concentration of 4 mg/L (Acinetobacter sp. J2; with 324 only): 4 µg/mL
- MIC of antibiotic at fixed inhibitor concentration of 4 mg/L (Acinetobacter sp. J2; with 501): 0.5 µg/mL
- MIC of antibiotic at fixed inhibitor concentration of 4 mg/L (Acinetobacter sp. J2; with BRL427158): 0.5 µg/mL
- MIC of antibiotic at fixed inhibitor concentration of 4 mg/L (Acinetobacter sp. J2; [7]): >32 µg/mL
- MIC of antibiotic at fixed inhibitor concentration of 4 mg/L (Acinetobacter sp. J2; with sulbactam): 2 µg/mL
- MIC of antibiotic at fixed inhibitor concentration of 4 mg/L (Acinetobacter sp. J2; with tazobactam): 4 µg/mL
- MIC of antibiotic ([2]; antibiotic alone, no inhibitor): 16 µg/mL
- MIC of antibiotic at fixed inhibitor concentration of 4 mg/L ([2]; with 102 and clavulanate): 2 µg/mL
- MIC of antibiotic at fixed inhibitor concentration of 4 mg/L ([2]; with 102 and sulbactam): 4 µg/mL
- MIC of antibiotic at fixed inhibitor concentration of 4 mg/L ([2]; with 102 only): 2 µg/mL
- MIC of antibiotic at fixed inhibitor concentration of 4 mg/L ([2]; with 324 and clavulanate): 2 µg/mL
- MIC of antibiotic at fixed inhibitor concentration of 4 mg/L ([2]; with 324 and sulbactam): 2 µg/mL
- MIC of antibiotic at fixed inhibitor concentration of 4 mg/L ([2]; with 324 only): 4 µg/mL
- MIC of antibiotic at fixed inhibitor concentration of 4 mg/L ([2]; with 501): 2 µg/mL
- MIC of antibiotic at fixed inhibitor concentration of 4 mg/L ([2]; with BRL427158): 2 µg/mL
- MIC of antibiotic at fixed inhibitor concentration of 4 mg/L [2, 7]: 2 µg/mL
- MIC of antibiotic at fixed inhibitor concentration of 4 mg/L ([2]; with sulbactam): 2 µg/mL
- MIC of antibiotic at fixed inhibitor concentration of 4 mg/L ([2]; with tazobactam): 2 µg/mL
- MIC of antibiotic ([3]; antibiotic alone, no inhibitor): 4 µg/mL
- MIC of antibiotic at fixed inhibitor concentration of 4 mg/L ([3]; with 102 and clavulanate): 4 µg/mL
- MIC of antibiotic at fixed inhibitor concentration of 4 mg/L ([3]; with 102 only): 2 µg/mL
- MIC of antibiotic at fixed inhibitor concentration of 4 mg/L ([3]; with 324 and clavulanate): 2 µg/mL
- MIC of antibiotic at fixed inhibitor concentration of 4 mg/L ([3]; with 324 only): 2 µg/mL
- MIC of antibiotic at fixed inhibitor concentration of 4 mg/L ([3]; with 501): 1 µg/mL
- MIC of antibiotic at fixed inhibitor concentration of 4 mg/L ([3]; with BRL427158): 32 µg/mL
- MIC of antibiotic at fixed inhibitor concentration of 4 mg/L ([3]; with clavulanic acid): 1 µg/mL
- MIC of antibiotic at fixed inhibitor concentration of 4 mg/L ([3]; with sulbactam): 2 µg/mL
- MIC of antibiotic at fixed inhibitor concentration of 4 mg/L ([3]; with tazobactam): 4 µg/mL
- MIC of antibiotic ([4]; antibiotic alone, no inhibitor): 16 µg/mL
- MIC of antibiotic at fixed inhibitor concentration of 4 mg/L ([4]; with 102 and clavulanate): 4 µg/mL
- MIC of antibiotic at fixed inhibitor concentration of 4 mg/L ([4]; with 102 only): 8 µg/mL
- MIC of antibiotic at fixed inhibitor concentration of 4 mg/L ([4]; with 324 and clavulanate): 4 µg/mL
- MIC of antibiotic at fixed inhibitor concentration of 4 mg/L ([4]; with 324 only): 4 µg/mL
- MIC of antibiotic at fixed inhibitor concentration of 4 mg/L ([4]; with 501): 16 µg/mL
- MIC of antibiotic at fixed inhibitor concentration of 4 mg/L ([4]; with BRL427158): 0.5 µg/mL
- MIC of antibiotic at fixed inhibitor concentration of 4 mg/L ([4]; with clavulanic acid): 8 µg/mL
- MIC of antibiotic at fixed inhibitor concentration of 4 mg/L ([4]; with sulbactam): 16 µg/mL
- MIC of antibiotic at fixed inhibitor concentration of 4 mg/L ([4]; with tazobactam): 16 µg/mL
- MIC of antibiotic ([5]; antibiotic alone, no inhibitor): <0.06 µg/mL
- MIC of antibiotic at fixed inhibitor concentration of 4 mg/L ([5]; with 102 and clavulanate): 0.25 µg/mL
- MIC of antibiotic at fixed inhibitor concentration of 4 mg/L ([5]; with 102 and sulbactam): 0.25 µg/mL
- MIC of antibiotic at fixed inhibitor concentration of 4 mg/L ([5]; with 102 only): 0.25 µg/mL
- MIC of antibiotic at fixed inhibitor concentration of 4 mg/L ([5]; with 324 and clavulanate): 0.25 µg/mL
- MIC of antibiotic at fixed inhibitor concentration of 4 mg/L ([5]; with 324 and sulbactam): 0.25 µg/mL
- MIC of antibiotic at fixed inhibitor concentration of 4 mg/L ([5]; with 324 only): 0.25 µg/mL
- MIC of antibiotic at fixed inhibitor concentration of 4 mg/L ([5]; with 501): 0.125 µg/mL
- MIC of antibiotic at fixed inhibitor concentration of 4 mg/L ([5]; with BRL427158): 0.125 µg/mL
- MIC of antibiotic at fixed inhibitor concentration of 4 mg/L [5, 7]: ≦0.06 mg/L
- MIC of antibiotic at fixed inhibitor concentration of 4 mg/L ([5]; with sulbactam): ≦0.06 mg/L
- MIC of antibiotic at fixed inhibitor concentration of 4 mg/L ([5]; with tazobactam): ≦0.06 mg/L
- MIC of antibiotic ([6]; antibiotic alone, no inhibitor): 32 µg/mL
- MIC of antibiotic at fixed inhibitor concentration of 4 mg/L ([6]; with 102 and clavulanate): 0.25 µg/mL
- MIC of antibiotic at fixed inhibitor concentration of 4 mg/L ([6]; with 102 and sulbactam): 1 µg/mL
- MIC of antibiotic at fixed inhibitor concentration of 4 mg/L ([6]; with 102 only): 16 µg/mL
- MIC of antibiotic at fixed inhibitor concentration of 4 mg/L ([6]; with 324 and clavulanate): 0.25 µg/mL
- MIC of antibiotic at fixed inhibitor concentration of 4 mg/L ([6]; with 324 and sulbactam): 1 µg/mL
- MIC of antibiotic at fixed inhibitor concentration of 4 mg/L ([6]; with 324 only): 16 µg/mL
- MIC of antibiotic at fixed inhibitor concentration of 4 mg/L ([6]; with 501): 1 µg/mL
- MIC of antibiotic at fixed inhibitor concentration of 4 mg/L ([6]; with BRL427158): 0.125 µg/mL
- MIC of antibiotic at fixed inhibitor concentration of 4 mg/L [6, 7]: 0.5 µg/mL
- MIC of antibiotic at fixed inhibitor concentration of 4 mg/L ([6]; with sulbactam): 1 µg/mL
- MIC of antibiotic at fixed inhibitor concentration of 4 mg/L ([6]; with tazobactam): 1 µg/mL
- MIC of antibiotic (Enterobacter cloacae P99; antibiotic alone, no inhibitor): 16 µg/mL
- MIC of antibiotic at fixed inhibitor concentration of 4 mg/L (Enterobacter cloacae P99; with 102 and clavulanate): 2 µg/mL
- MIC of antibiotic at fixed inhibitor concentration of 4 mg/L (Enterobacter cloacae P99; with 102 and sulbactam): 2 µg/mL
- MIC of antibiotic at fixed inhibitor concentration of 4 mg/L (Enterobacter cloacae P99; with 102 only): 1 µg/mL
- MIC of antibiotic at fixed inhibitor concentration of 4 mg/L (Enterobacter cloacae P99; with 324 and clavulanate): 1 µg/mL
- MIC of antibiotic at fixed inhibitor concentration of 4 mg/L (Enterobacter cloacae P99; with 324 and sulbactam): 2 µg/mL
- MIC of antibiotic at fixed inhibitor concentration of 4 mg/L (Enterobacter cloacae P99; with 324 only): 2 µg/mL
- MIC of antibiotic at fixed inhibitor concentration of 4 mg/L (Enterobacter cloacae P99; with 501): 2 µg/mL
- MIC of antibiotic at fixed inhibitor concentration of 4 mg/L (Enterobacter cloacae P99; with BRL427158): 2 µg/mL
- MIC of antibiotic at fixed inhibitor concentration of 4 mg/L (Enterobacter cloacae P99; [7]): 8 µg/mL
- MIC of antibiotic at fixed inhibitor concentration of 4 mg/L (Enterobacter cloacae P99; with sulbactam): 8 µg/mL
- MIC of antibiotic at fixed inhibitor concentration of 4 mg/L (Enterobacter cloacae P99; with tazobactam): 16 µg/mL
- MIC of antibiotic (Serratia marcescens S6; antibiotic alone, no inhibitor): <0.06 µg/mL
- MIC of antibiotic at fixed inhibitor concentration of 4 mg/L (Serratia marcescens S6; with 102 and clavulanate): ≦0.06 mg/L
- MIC of antibiotic at fixed inhibitor concentration of 4 mg/L (Serratia marcescens S6; with 102 and sulbactam): <0.06 µg/mL
- MIC of antibiotic at fixed inhibitor concentration of 4 mg/L (Serratia marcescens S6; with 102 only): ≦0.06 mg/L
- MIC of antibiotic at fixed inhibitor concentration of 4 mg/L (Serratia marcescens S6; with 324 and clavulanate): <0.06 µg/mL
- MIC of antibiotic at fixed inhibitor concentration of 4 mg/L (Serratia marcescens S6; with 324 and sulbactam): <0.06 µg/mL
- MIC of antibiotic at fixed inhibitor concentration of 4 mg/L (Serratia marcescens S6; with 324 only): ≦0.06 mg/L
- MIC of antibiotic at fixed inhibitor concentration of 4 mg/L (Serratia marcescens S6; with 501): ≦0.06 mg/L
- MIC of antibiotic at fixed inhibitor concentration of 4 mg/L (Serratia marcescens S6; with BRL427158): ≦0.06 mg/L
- MIC of antibiotic at fixed inhibitor concentration of 4 mg/L (Serratia marcescens S6; [7]): ≦0.06 mg/L
- MIC of antibiotic at fixed inhibitor concentration of 4 mg/L (Serratia marcescens S6; with sulbactam): ≦0.06 mg/L
- MIC of antibiotic at fixed inhibitor concentration of 4 mg/L (Serratia marcescens S6; with tazobactam): ≦0.06 mg/L
Compound: CC1(C)[C@H](NC(=O)/C(=N\OCc2cc(=O)c(O)cn2O)c2csc(N)n2)C(=O)N1OS(=O)(=O)O [Compound 26, (3S)-3-{(2Z)-2-(2-amino(1,3-thiazol-4-yl))-3-[(1,5-dihydroxy-4-oxo(2-hydropyridyl))methoxy]-3-azaprop-2-enoylamino}-4,4-dimethyl-2-oxoazetidinyl hydroxysulfonate]
